Experimental data published in ChEMBL document CHEMBL1177734, “Novel tacrine-8-hydroxyquinoline hybrids as multifunctional agents for the treatment of Alzheimer's disease, with neuroprotective, cholinergic, antioxidant, and copper-complexing properties” (J Med Chem, 2010).
Active and inactive are the calls of the source. The rule behind the calls is not given here.

Columns and labels:
Cholinesterase [1] = molecular target: Cholinesterase (Equus caballus, UniProt P81908)
Description: Inhibition of horse serum BChE by Ellman's reaction

Acetylcholinesterase [2] = molecular target: T1, Acetylcholinesterase (Bos taurus, UniProt P23795)
T1 sequence (P23795 whole entry): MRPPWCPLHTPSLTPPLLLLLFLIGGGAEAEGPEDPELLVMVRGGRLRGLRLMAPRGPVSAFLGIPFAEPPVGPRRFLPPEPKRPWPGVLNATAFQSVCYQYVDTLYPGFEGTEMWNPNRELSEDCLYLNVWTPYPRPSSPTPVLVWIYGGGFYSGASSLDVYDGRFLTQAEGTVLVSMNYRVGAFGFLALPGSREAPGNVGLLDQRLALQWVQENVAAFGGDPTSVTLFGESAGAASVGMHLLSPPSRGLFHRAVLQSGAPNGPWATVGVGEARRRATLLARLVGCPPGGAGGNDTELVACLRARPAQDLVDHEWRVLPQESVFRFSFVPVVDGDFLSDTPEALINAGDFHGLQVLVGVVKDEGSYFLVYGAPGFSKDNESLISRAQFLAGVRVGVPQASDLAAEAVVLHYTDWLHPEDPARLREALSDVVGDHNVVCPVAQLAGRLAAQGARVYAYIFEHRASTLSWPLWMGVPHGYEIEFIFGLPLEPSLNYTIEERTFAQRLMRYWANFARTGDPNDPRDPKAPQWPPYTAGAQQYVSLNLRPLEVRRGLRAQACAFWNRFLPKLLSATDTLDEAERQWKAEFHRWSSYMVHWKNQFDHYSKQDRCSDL
Description: Inhibition of bovine erythrocyte AChE by Ellman's reaction

SH-SY5Y [3] = test: Neuroprotective activity against rotenone-induced cell death in human SH-SY5Y cells assessed as lactate dehydrogenase release at 3 uM after 24 hrs; type: functional
[4] = Metal chelating activity assessed as formation of copper complex in Tris buffer at pH 7.4 at 22.5 uM after 1 min by UV-vis spectrometry; type: functional
[5] = Metal chelating activity assessed as formation of copper complex in Tris buffer at pH 7.4 at 22.5 uM by UV-vis spectrometry; type: functional
[6] = Permeability by PAMPA method; type: ADME; settings: read-out: permeability
SH-SY5Y [7] = test: Cytotoxicity against human SH-SY5Y cells assessed as lactate dehydrogenase release at 3 uM after 24 hrs; type: cell-based
[8] = Metal chelating activity assessed as formation of iron complex in Tris buffer at pH 7.4 at 22.5 uM after 30 mins by UV-vis spectrometry; type: functional
Cholinesterase [9] = molecular target: Cholinesterase (Homo sapiens, UniProt P06276)
Cholinesterase (Homo sapiens, UniProt P06276), sequence (P06276 whole entry): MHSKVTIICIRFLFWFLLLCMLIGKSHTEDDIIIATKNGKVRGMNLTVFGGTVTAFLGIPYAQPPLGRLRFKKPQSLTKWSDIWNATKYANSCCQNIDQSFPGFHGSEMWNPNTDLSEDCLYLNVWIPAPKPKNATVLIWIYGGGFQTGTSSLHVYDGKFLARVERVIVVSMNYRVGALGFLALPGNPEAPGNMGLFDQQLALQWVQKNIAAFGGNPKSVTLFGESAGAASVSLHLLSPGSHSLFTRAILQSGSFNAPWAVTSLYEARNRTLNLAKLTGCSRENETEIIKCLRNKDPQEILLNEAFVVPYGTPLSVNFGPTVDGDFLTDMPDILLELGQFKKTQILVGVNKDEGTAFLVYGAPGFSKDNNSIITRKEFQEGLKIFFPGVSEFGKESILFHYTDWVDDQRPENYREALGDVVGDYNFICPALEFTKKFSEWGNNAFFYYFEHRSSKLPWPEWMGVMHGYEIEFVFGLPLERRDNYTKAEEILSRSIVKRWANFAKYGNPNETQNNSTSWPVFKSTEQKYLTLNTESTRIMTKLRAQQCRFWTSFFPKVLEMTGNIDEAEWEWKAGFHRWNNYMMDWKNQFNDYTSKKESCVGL
Description: Inhibition of human serum BChE by Ellman's reaction

Acetylcholinesterase [10] = molecular target: Acetylcholinesterase (Homo sapiens, UniProt P22303)
Acetylcholinesterase (Homo sapiens, UniProt P22303), sequence (P22303 whole entry): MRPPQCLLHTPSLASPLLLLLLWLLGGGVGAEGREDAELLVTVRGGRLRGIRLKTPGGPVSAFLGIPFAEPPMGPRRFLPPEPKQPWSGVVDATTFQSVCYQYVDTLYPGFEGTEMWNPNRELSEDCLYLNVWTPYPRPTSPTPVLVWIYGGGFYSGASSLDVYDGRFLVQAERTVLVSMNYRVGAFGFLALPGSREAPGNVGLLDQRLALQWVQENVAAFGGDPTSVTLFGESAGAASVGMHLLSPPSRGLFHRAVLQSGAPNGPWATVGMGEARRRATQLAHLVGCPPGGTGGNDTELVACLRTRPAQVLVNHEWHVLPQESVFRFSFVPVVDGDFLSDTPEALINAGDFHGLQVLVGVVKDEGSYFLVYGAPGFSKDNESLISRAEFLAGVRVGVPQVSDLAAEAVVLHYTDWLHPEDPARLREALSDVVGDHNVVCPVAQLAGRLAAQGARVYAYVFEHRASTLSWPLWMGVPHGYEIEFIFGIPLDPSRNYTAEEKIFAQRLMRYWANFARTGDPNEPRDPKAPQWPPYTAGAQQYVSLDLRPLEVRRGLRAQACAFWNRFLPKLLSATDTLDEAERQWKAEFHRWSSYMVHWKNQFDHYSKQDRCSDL
Description: Inhibition of human erythrocyte AChE by Ellman's reaction

Cholinesterase (Equus caballus, UniProt P81908), sequence (P81908 whole entry): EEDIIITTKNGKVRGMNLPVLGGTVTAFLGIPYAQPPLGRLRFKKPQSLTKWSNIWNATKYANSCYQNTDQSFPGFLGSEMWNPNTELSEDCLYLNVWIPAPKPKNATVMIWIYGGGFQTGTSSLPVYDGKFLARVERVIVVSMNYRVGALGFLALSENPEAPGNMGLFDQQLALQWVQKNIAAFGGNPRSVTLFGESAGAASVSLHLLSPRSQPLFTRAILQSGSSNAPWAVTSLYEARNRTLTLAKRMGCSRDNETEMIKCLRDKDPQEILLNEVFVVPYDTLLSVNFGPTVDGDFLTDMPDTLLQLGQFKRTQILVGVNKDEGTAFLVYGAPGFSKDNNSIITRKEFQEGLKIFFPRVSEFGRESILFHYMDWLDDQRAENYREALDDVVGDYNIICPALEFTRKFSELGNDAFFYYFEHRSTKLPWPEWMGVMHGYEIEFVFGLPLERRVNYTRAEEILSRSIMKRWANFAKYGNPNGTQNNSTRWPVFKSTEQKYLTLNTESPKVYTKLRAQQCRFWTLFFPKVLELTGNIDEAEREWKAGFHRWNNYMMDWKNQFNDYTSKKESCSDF

SMILES	IC50 (Cholinesterase [1]) [nM]	IC50 (Acetylcholinesterase [2]) [nM]	also measured
Oc1c(CNCCCCCCCCCCNc2c3c(nc4ccccc24)CCCC3)ccc2cccnc12	65	50	–
Cl.Cl.Oc1c(CNCCCCCCCCCNc2c3c(nc4ccccc24)CCCC3)ccc2cccnc12	5	20	Activity (SH-SY5Y [3]): 30%; Activity [4]: inactive; Activity [5]: Active; Papp [6]: 17.4 ×10⁻⁶ cm/s; Activity (SH-SY5Y [7]): Toxic; Activity [8]: inactive; IC50 (Cholinesterase [9]): 20 nM; IC50 (Acetylcholinesterase [10]): 5.5 nM
Oc1cccc2cccnc12 [OXYQUINOLINE]	–	–	IC50 (Cholinesterase [9]): > 100 nM; IC50 (Acetylcholinesterase [10]): > 100 nM
Oc1c(CNCCCCCCCCCCNc2c3c(nc4ccccc24)CCCC3)cc(Cl)c2cccnc12	–	100	–
Oc1c(CNCCCCCCCNc2c3c(nc4ccccc24)CCCC3)ccc2cccnc12	150	25	–
Cl.Cl.Cl.Oc1c(CNCCCCCCCCCNc2c3c(nc4ccccc24)CCCC3)cc(Cl)c2cccnc12	6.5	85	Papp [6]: 10 ×10⁻⁶ cm/s; IC50 (Cholinesterase [9]): 55 nM; IC50 (Acetylcholinesterase [10]): 1 nM
Cc1ccc2ccc(CNCCCCCCCCNc3c4c(nc5ccccc35)CCCC4)c(O)c2n1.Cl.Cl	2	75	Papp [6]: 14.1 ×10⁻⁶ cm/s; IC50 (Cholinesterase [9]): 6.5 nM; IC50 (Acetylcholinesterase [10]): 0.5 nM
Cc1ccc2ccc(CNCCCN(C)CCCNc3c4c(nc5ccccc35)CCCC4)c(O)c2n1	–	200	–
Oc1c(CNCCCCCCCCCCCCNc2c3c(nc4ccccc24)CCCC3)ccc2cccnc12	–	250	–
Oc1c(CNCCCCCCCCNc2c3c(nc4ccccc24)CCCC3)cc(Cl)c2cccnc12	–	150	–
Cc1ccc2ccc(CNCCCCCCCCCCNc3c4c(nc5ccccc35)CCCC4)c(O)c2n1	7	70	–
Cc1ccc2ccc(CNCCCCCCCCCNc3c4c(nc5ccccc35)CCCC4)c(O)c2n1	–	100	–
Oc1c(CNCCCCCCCCCCCCNc2c3c(nc4ccccc24)CCCC3)cc(Cl)c2cccnc12	–	400	–
Oc1c(CNCCCCCCNc2c3c(nc4ccccc24)CCCC3)ccc2cccnc12	–	200	–
Oc1c(CNCCCCCCCCNc2c3c(nc4ccccc24)CCCC3)ccc2cccnc12	30	90	–
CN(CCCNCc1ccc2cccnc2c1O)CCCNc1c2c(nc3ccccc13)CCCC2	50	80	–
CN(CCCNCc1cc(Cl)c2cccnc2c1O)CCCNc1c2c(nc3ccccc13)CCCC2	30	90	–
Cc1ccc2ccc(CNCCCCCCCNc3c4c(nc5ccccc35)CCCC4)c(O)c2n1	–	200	–
